Tests used:
Assay type in all cases: cell-based, P. aeruginosa
[1] = tested on: MvfR regulon; assay: pqsA gene expression (pqsA-GFP reporter); conditions: for activity at 50 µM / activity at 10 µM: Pseudomonas aeruginosa; for activity at 50 µM: read-out: pqsA @50 uM (%), compound at 50 uM; for activity at 10 µM: read-out: pqsA @10 uM (%), compound at 10 uM
Method: Experiments were performed to identify compounds that inhibit the MvfR regulon without altering growth, ultimately attenuating P. aeruginosa infection. MvfR is a LysR-type transcriptional regulator that directs HAQs synthesis, including that of its ligands, 4-hydroxy-2-heptylquinoline (HHQ) and 3,4-dihydroxy-2-heptylquinoline (PQS).
MvfR promotes the production of HAQs by binding to and activating the pqs operon, which encodes enzymes for HAQ synthesis. Anthranilic acid (AA), derived from the phnAB, kynABU, and trpEG pathways, is the precursor for HAQs. pqsA encodes an anthranilate-coenzyme A ligase, which activates anthranilic acid and catalyzes the first committed step to HAQ production. The exact roles of PqsB and PqsC are unknown, though both show homology to acyl-carrier-proteins and both are required for HHQ and PQS production. […] The final gene of the operon, pqsE encodes for a putative hydrolase, and while the protein is not required for the synthesis of HAQs, it is necessary for pyocyanin production.
Nanomolar levels of most of these MvfR antagonists impeded the activity of MvfR and in consequence the MvfR virulence regulated ACRP functions, including: (1) the production of the important pro-acute P. aeruginosa virulence factor pyocyanin (see e.g., FIG. 9A) the efficacy of two of these potent inhibitors, D57 and D88, was also confirmed by testing many different MDR P. aeruginosa clinical isolates (see e.g., FIG. 11A-11B), providing further confidence of their inhibitory potency; (2) the expression of the genes that encode the enzymes catalyzing the synthesis of both pro-acute and pro-persistence MvfR-regulated virulence molecules, 4-hydroxyl-2-alkyl-quinolines (HAQs) and 2-aminoacetophenon (2-AA), as assessed by pqsAGFP reporter gene expression (see e.g., FIG. 9B) and HAQ production showing the levels of MvfR inducers/ligands HHQ and PQS as well as of the molecules critical for biofilm and Antibiotic tolerant/persiters cells formation HQNO and 2-AA (see e.g., FIG. 9C); (3) AT/P cell formation (see e.g., FIGS. 11A, 12A); (4) biofilm formation (see e.g., FIG. 12B); and (5) biofilm dispersal of preformed biofilm by potentiating antibiotic action (see e.g., FIG. 11B).

[2] = tested on: MvfR regulon; assay: LC/MS quantification of HAQs and related molecules in bacterial culture supernatants; conditions: Pseudomonas aeruginosa
[3] = tested on: MvfR regulon; assay: Quantification of pyocyanin (OD520nm of chloroform-extracted cultures); conditions: for activity at 50 µM: read-out: pyocyanin @50 uM (%), compound at 50 uM; for activity at 1 µM: read-out: pyocyanin @1 uM (%), compound at 1 uM; for activity at 10 µM: read-out: pyocyanin @10 uM (%), compound at 10 uM
[4] = compound at 50 uM, listed as G1

Row | SMILES | pqsA @50 uM (%) [1, 4] [%] | activity at 50 µM ([2]; read-out: 2-AA @50 uM) [%] | activity at 50 µM ([2]; read-out: HHQ @50 uM (%)) [%] | activity at 50 µM ([2]; read-out: HQNO @50 uM (%)) [%] | activity at 50 µM ([2]; read-out: PQS @50 uM (%)) [%] | pyocyanin @50 uM (%) [3, 4] [%] | activity at 50 µM [1] [%] | activity at 50 µM ([2]; read-out: DHQ @50 uM) [%] | activity at 50 µM ([3]; Pseudomonas aeruginosa) [%] | activity at 10 µM [1] [%] | activity at 1 µM ([3]; Pseudomonas aeruginosa) [%] | activity at 10 µM ([3]; Pseudomonas aeruginosa) [%] | IC50 ([3]; Pseudomonas aeruginosa, read-out: IC50 pyocyanin (μM)) [µM]
1 | Cc1cc(F)ccc1NCC(=O)Nc1cccc(C#N)c1 [Compound 2] | 84.13 | 122 | 100 | 101 | 109 | 102.49 | – | – | – | – | – | – | –
2 | Cc1cc(F)ccc1NCC(=O)Nc1ccc(C(F)(F)F)cc1 [Compound 3] | – | 68.3 | 110 | 86.5 | 93.4 | – | 46 | 81.5 | 60.9 | – | – | – | –
3 | Cc1cc(F)ccc1NCC(=O)Nc1ccccc1C#N [Compound 4] | – | 123 | 99.2 | 111 | 122 | – | 95.9 | – | 113 | – | – | – | –
4 | Cc1cc(F)ccc1NCC(=O)Nc1ccc(F)cc1 [Compound 5] | – | 80.4 | 94.6 | 92.3 | 88.5 | – | 92 | 84.7 | 83.6 | – | – | – | –
5 | Cc1cc(F)ccc1OCC(=O)Nc1ccc(C#N)cc1 [Compound 6] | – | 63.4 | 114 | 111 | 114 | – | 98 | 82.7 | 98.4 | – | – | – | –
6 | Cc1cc(F)ccc1NC(C)C(=O)Nc1ccc(C#N)cc1 (stereo not shown) [Compound 7] | – | 152 | 106 | 131 | 115 | – | 86.8 | – | 110 | – | – | – | –
7 | Cc1cc(F)ccc1OCC(=O)Nc1ccc(F)cc1 [Compound 8] | – | 71.7 | 83.5 | 94 | 94.7 | – | 78 | 67.8 | 91.1 | – | – | – | –
8 | N#Cc1ccc(NC(=O)CNc2ccc(F)cc2)cc1 [Compound 9] | – | 112 | 87.1 | 108 | 124 | – | 63.2 | – | 85.6 | – | – | – | –
9 | Cc1ccccc1NCC(=O)Nc1ccc(C#N)cc1 [Compound 10] | – | 63.9 | 76.4 | 92.5 | 124 | – | 92.9 | 59.5 | 94.3 | – | – | – | –
10 | N#Cc1ccc(NC(=O)CC(=O)Nc2ccc(F)cn2)cc1 [Compound 88] | – | – | – | – | – | – | – | – | 48.3 | 95.1 | 97 | 77.7 | –
11 | CN(C(=O)CC(=O)Nc1ccc(C#N)cc1)c1ccc(C#N)cc1 [Compound 89] | – | – | – | – | – | – | – | – | 84.8 | 98.5 | 95.7 | 102 | –
12 | N#Cc1ccc(NC(=O)CC(=O)Nc2cccc(C#N)c2)cc1 [Compound 90] | – | – | – | – | – | – | – | – | 49.4 | 97.2 | 91.8 | 88.5 | –
13 | N#Cc1ccc(NC(=O)CC(=O)c2ccc(F)cc2)cc1 [Compound 91] | – | – | – | – | – | – | – | – | 77.1 | 87.4 | 99.2 | 98.3 | –
14 | N#Cc1ccc(NC(=O)CC(=O)Nc2ccc(C#N)nc2)cc1 [Compound 92] | – | – | – | – | – | – | – | – | 6.8 | 25.4 | 64.5 | 13.9 | 1.61
15 | N#Cc1ccc(NC(=O)CC(=O)Nc2ccc(C#N)cn2)cc1 [Compound 93] | – | – | – | – | – | – | – | – | 14.3 | 61.3 | 79.6 | 53.5 | –
16 | N#Cc1ccc(NC(=O)C2CCN(c3ccc(F)cc3)C2=O)cc1 (stereo not shown) [Compound 94] | – | – | – | – | – | – | – | – | 95.2 | 109 | 94.6 | 94 | –

From patent publication US11731946B2, “Broad spectrum antivirulence, anti-persistence compounds” (priority 2017, dated 2023)
